Results published in patent publication US20230075856A1, “CYCLIC SULFAMIDE COMPOUNDS FOR TREATMENT OF HBV” (Assembly Biosciences, Inc., priority 2018, published 2023).
pEC50: −log10 of the molar value.

Tested on: HBV viral load production from HepAD38 cells
Test: Viral production from HepAD38 cells: viral load in supernatant by qPCR of the HBV core sequence
Assay type: cell-based
Conditions: 5 days incubation, qPCR of supernatant HBV DNA vs DMSO control, read-out: viral load lowering EC50 (Activity)
Outline: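 Viral load was measured by qPCR of the HBV core region in supernatant, quantified against DNA standards and compared with DMSO wells. Cells (50,000/well, tetracycline withdrawn, 2% FBS) received compound from 10 μM final for 5 days; EC50 from four-parameter nonlinear regression.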

| SMILES | pEC50 |
| --- | --- |
| Cc1c(CNC(=O)C2CC(C(=O)Nc3ccc(F)c(Cl)c3)N(C)S(=O)(=O)N2)nnn1-c1ccccc1 (single isomer, unassigned; isomer-a) [1148-ISOMER-A, N3-(3-chloro-4-fluoro-phenyl)-2-methyl-N5-[(5-methyl-1-phenyl-triazol-4-yl)methyl]-1,1-dioxo-1,2,6-thiadiazinane-3,5-dicarboxamide] | 7.00 to 7.30 |
| Cc1ncc(CNC(=O)C2CC(C(=O)Nc3ccc(F)c(Cl)c3)N(C)S(=O)(=O)N2)s1 (single isomer, unassigned; isomer-a) [Compound 495-ISOMER-A, N3-(3-chloro-4-fluroo-phenyl)-2-methyl-N5-[(2-methylthiazol-5-yl)methyl]-1,1-dioxo-1,2,6-thiadiazinane-3,5-dicarboxamide] | 5.00 to 7.00 |
| COC(=O)N1CCC(NC(=O)C2CC(C(=O)Nc3ccc(F)c(Cl)c3)N(CC(F)(F)F)S(=O)(=O)N2)CC1 (single isomer, unassigned; isomer-a) [Compound 893-ISOMER-A, methyl 4-[[5-[(3-chloro-4-fluroo-phenyl)carbamoyl]-1,1-dioxo-6-(2,2,2-triflurooethyl)-1,2,6-thiadiazinane-3-carbonyl]amino]piperidine-1-carboxylate] | > 7.30 |
| CN1C(C(=O)Nc2ccc(F)c(Cl)c2)CC(C(=O)NCc2ccccc2-n2ccnc2)NS1(=O)=O (single isomer, unassigned; isomer-a) [Compound 910-ISOMER-A, N3-(3-chloro-4-fluoro-phenyl)-N5-[(2-imidaozl-1-ylphenyl)methyl]-2-methyl-1,1-dioxo-1,2,6-thiadiazinane-3,5-dicarboxamide] | > 7.30 |
| CN1C(C(=O)Nc2ccc(F)c(Cl)c2)CC(C(=O)NCc2cnc(-c3ccc(O)cc3)s2)NS1(=O)=O (single isomer, unassigned; isomer-a) [Compound 924-ISOMER-A, N3-(3-chloro-4-fluroo-phenyl)-N5-[[2-(4-hydroxyphenyl)thiazol-5-yl]methyl]-2-methyl-1,1-dioxo-1,2,6-thiadiazinane-3,5-dicarboxamide] | 5.00 to 7.00 |
| CN1C(C(=O)Nc2ccc(F)c(Cl)c2)CC(C(=O)NCc2cc(-c3ccccc3Cl)no2)NS1(=O)=O (single isomer, unassigned; isomer-b) [1025-ISOMER-B, N3-(3-chloro-4-fluoro-phenyl)-N5-[[3-(2-chlorophenyl)isoxazol-5-yl]methyl]-2-methyl-1,1-dioxo-1,2,6-thiadicarboxamidediazinane-3,5-] | 5.00 to 7.00 |
| Cc1nc(-c2ccc(F)cc2F)sc1CNC(=O)C1CC(C(=O)Nc2ccc(F)c(Cl)c2)N(C)S(=O)(=O)N1 (single isomer, unassigned; isomer-b) [1083-ISOMER-B, N3-(3-chloro-4-fluoro-phenyl)-N5-[[2-(2,4-difluroophenyl)-4-methyl-thiazol-5-yl]methyl]-2-methyl-1,1-dioxo-1,2,6-thiadiazinane-3,5-dicarboxamide] | 5.00 to 7.00 |
| Cc1c(CNC(=O)C2CC(C(=O)Nc3ccc(F)c(Cl)c3)N(C)S(=O)(=O)N2)nnn1-c1ccccc1 (single isomer, unassigned; isomer-b) [1148-ISOMER-B, N3-(3-chloro-4-fluoro-phenyl)-2-methyl-N5-[(5-methyl-1-phenyl-triazol-4-yl)methyl]-1,1-dioxo-1,2,6-thiadiazinane-3,5-dicarboxamide] | 5.00 to 7.00 |
| Cc1cccc(CNC(=O)C2CC(C(=O)Nc3ccc(F)c(Cl)c3)N(C)S(=O)(=O)N2)n1 (single isomer, unassigned; isomer-b) [Compound 716-ISOMER-B, N3-(3-chloro-4-fluoro-phenyl)-2-methyl-N5-[(6-methyl-2-pyridyl)methyl]-1,1-dioxo-1,2,6-thiadiazinane-3,5-dicarboxamde] | 5.00 to 7.00 |
